Measured values taken from PubChem BioAssay (NCI).
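Exposure lasted 48 hours, with cells grown in 96-well plates and compounds tested at five concentrations. The concentration for 50% growth inhibition is given as GI50. TGI denotes the concentration required for complete inhibition of growth.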

Columns and labels:
Experiment in all cases: DTP human tumour cell line panel, 48 h
HL-60(TB) leukemia = test system: HL-60(TB) leukemia
CCRF-CEM leukemia = test system: CCRF-CEM leukemia
U251 CNS = test system: U251 CNS
SK-MEL-2 melanoma = test system: SK-MEL-2 melanoma
UACC-257 melanoma = test system: UACC-257 melanoma
SF-295 CNS = test system: SF-295 CNS
HOP-92 NSCLC = test system: HOP-92 NSCLC
PC-3 prostate = test system: PC-3 prostate
DLD-1 colon = test system: DLD-1 colon
LXFL 529 NSCLC = test system: LXFL 529 NSCLC

| Compound | GI50 (HL-60(TB) leukemia) [µM] | TGI (HL-60(TB) leukemia) [µM] | GI50 (CCRF-CEM leukemia) [µM] | TGI (CCRF-CEM leukemia) [µM] | GI50 (U251 CNS) [µM] | TGI (U251 CNS) [µM] | GI50 (SK-MEL-2 melanoma) [µM] | TGI (SK-MEL-2 melanoma) [µM] | GI50 (UACC-257 melanoma) [µM] | TGI (UACC-257 melanoma) [µM] | GI50 (SF-295 CNS) [µM] | TGI (SF-295 CNS) [µM] | GI50 (HOP-92 NSCLC) [µM] | TGI (HOP-92 NSCLC) [µM] | GI50 (PC-3 prostate) [µM] | TGI (PC-3 prostate) [µM] | TGI (DLD-1 colon) [µM] | TGI (LXFL 529 NSCLC) [µM] | GI50 (DLD-1 colon) [µM] | GI50 (LXFL 529 NSCLC) [µM] |
| --- | --- | --- | --- | --- | --- | --- | --- | --- | --- | --- | --- | --- | --- | --- | --- | --- | --- | --- | --- | --- |
| CC[C@H]1CCC/C=C/[C@@H]2C[C@H](O)C[C@H]2[C@H](O)/C=C/C(=O)O1 | 0.0669 | 0.473 | 0.0455 | > 100 | 0.0443 | > 100 | 0.0337 | 0.198 | 0.0802 | > 100 | 0.0545 | > 100 | 0.157 | > 100 | 0.0517 | > 100 |  |  |  |  |
| CCN1C(=O)N(CC)C2C1NN=c1s/c(=C\c3ccc(C(F)(F)F)cc3)c(=O)n12 (configuration not stated) | 0.245 | 0.609 | 0.328 | 17 | 0.443 | > 41.6 | 0.859 | > 52.3 | 7.49 | 35.4 | 0.33 | 31.2 | 2.2 | 35.9 | 0.385 | > 41.1 |  |  |  |  |
| CCCCc1n(Cc2ccc3ccccc3n2)cc[n+]1Cc1ccc2ccccc2n1 | 0.295 | 1.11 | 1.59 | 13.9 | 0.925 | 12.4 | 1.43 | 5.58 | 0.543 | 4.32 | 2.45 | 9.88 | 0.491 | 4.34 | 1.51 | 10.6 |  |  |  |  |
| O=C(c1ccc2ccccc2c1)c1c(C(F)(F)F)n([O-])c2cc(C(F)(F)F)ccc2[n+]1=O | 1.54 | 3.59 |  | 0.385 | 1.75 | 3.29 | 2.02 | 3.86 | 1.22 | 2.69 | 1.45 | 2.84 | 1.39 | 2.79 | 1.34 | 2.75 |  |  |  |  |
| FC(F)(F)c1cc(NC(=S)N2c3ccccc3-n3cccc3C2c2cccnc2)cc(C(F)(F)F)c1 (configuration not stated) | 3.87 | 21.4 | 4.1 | 33.7 | 4.2 | 14.8 | 12.7 | 31.6 | 3.9 | 15.7 | 5.52 | 21.1 | 2.93 | 7.87 |  | 16.7 |  |  |  |  |
| CN=C1CN=C(OP(=O)(N2CCOCC2)N2CCOCC2)c2cc(Cl)ccc2N1 |  | > 100 |  | > 100 |  | > 100 |  | > 100 |  | > 100 |  | > 100 |  |  |  |  | > 100 | > 100 |  |  |
| COc1cc(NS(C)(=O)=O)ccc1Cc1c2ccccc2nc2ccccc12 | 0.0258 | 0.141 | 0.042 | 0.751 | 0.136 | 1.21 | 1.43 | 3.2 | 0.493 | 2.67 | 0.0475 | 1.22 | 0.129 | 1.14 | 0.461 | 15.6 |  |  |  |  |
| CC(=O)[CH-]C(C)=O.CC(=O)[CH-]C(C)=O.[Cl-].[O]=[V] |  |  |  |  | 22.5 | 59 | 26.8 | 77.1 |  |  | 12.1 | 44.8 |  |  |  |  | > 100 | > 100 | 34.6 | 47.5 |
| CC(C)=Cc1cccc2[nH]c(O)c(N=Nc3ccc(S(N)(=O)=O)cc3)c12 | 3.37 | > 25 | 1.23 | > 25 | 4.24 | > 25 | > 25 | > 25 | > 25 | > 25 | 3.4 | > 25 | 6.57 | > 25 | 6.2 | > 25 |  |  |  |  |
| Cc1ccc(-c2nc(/C=N/Nc3cc(C)nc4ccc(Br)cc34)c(C)o2)cc1 | 1.9 | 4.05 | 2.17 | 5.51 | 1.84 | 3.45 | 19.7 | 41.2 | 2.13 | 5.02 | 2.86 | 8.8 | 1.5 | 2.98 | 1.71 | 3.3 |  |  |  |  |
| O=C1c2ccccc2C(=O)c2c1oc1c2c(=O)[nH]c2ccc(Cl)cc21 | 1.7 | 5.25 | 0.403 | 4.66 | 0.268 | 0.767 | 1.75 | 5.18 | 1.33 | 3.36 | 0.637 | 2.29 | 0.151 | 0.389 | 0.182 | 0.46 |  |  |  |  |
| C[N+](C)(C)C1CC([N+](C)(C)C)C2c3ccccc3C21 (configuration not stated) |  | > 100 |  | > 100 |  | > 100 |  |  |  | > 100 |  | > 100 |  | > 100 |  |  | > 100 | > 100 |  |  |
| O=S1(=O)c2cc(S(=O)(=O)n3ccnc3)ccc2NC2=NCCCN21 |  | 36.4 |  | 73.3 |  | 41.5 |  |  |  | > 100 |  | > 100 |  | > 100 |  |  | > 100 | > 100 |  |  |
| O=C1OC(c2ccc(Cl)cc2)=N/C1=C\c1ccccc1 |  | > 100 |  | > 100 |  | > 100 |  | > 100 |  | > 100 |  | > 100 |  | > 100 |  | > 100 |  |  |  |  |
| O=C(Nc1ccccc1Cl)c1ccc(NC2=C(Cl)C(=O)N(C3CCCCC3)C2=O)cc1 | 3.38 | 8.48 | 8.29 | 33.5 | 3 | 19.4 | 16.7 | 44.1 | 5.29 | 15 | 26.4 | 68.1 | 17.4 | 42.2 | 13.6 | 45.5 |  |  |  |  |
| COC(=O)C1=C(C(=O)ON)[C@@H]2C=C[C@@]1([C@@H](Cc1ccccc1)Nc1ccccc1)O2 | 1.45 | 6.18 | 2.43 | 8.2 | 14.3 | 27.6 | 15.6 | 30 | 2.07 | 4.5 | 15.1 | 28.8 | 1.5 | 2.88 | 1.84 | 3.74 |  |  |  |  |
| CCOC(=O)Nc1ccc2c(c1)C(=O)N(CC)c1ccccc1O2 | 0.0545 | 0.155 | 0.0889 | > 100 | 0.106 | > 100 | 0.102 | > 100 | 35.6 | > 100 | 0.0846 | 0.79 | 1.5 | > 100 | 0.121 | > 100 |  |  |  |  |
